Results reported in ChEMBL document CHEMBL1201862, “PubChem BioAssay data set” (2004).
The source made the active and inactive calls.

Assays:
[1] = target: Neurotensin receptor type 1 (Homo sapiens, UniProt P30989); assay type: functional;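 note: Image-based confirmatory dose-response assay measuring agonist activity at NTR1; NTR1-expressing U2OS osteosarcoma cells imaged for beta-arrestin GFP spot formation; agonist potency where compounds increase beta-arrestin recruitment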
[2] = target: T1, Microphthalmia-associated transcription factor (Homo sapiens, UniProt O75030); experiment: TRPM1 promoter luciferase signal decrease, dose response, MITF inhibitor project, cell-based, SK-MEL-5, cherry-picked, set 3 (AID 493073); assay type: functional
T1 sequence (O75030 whole entry): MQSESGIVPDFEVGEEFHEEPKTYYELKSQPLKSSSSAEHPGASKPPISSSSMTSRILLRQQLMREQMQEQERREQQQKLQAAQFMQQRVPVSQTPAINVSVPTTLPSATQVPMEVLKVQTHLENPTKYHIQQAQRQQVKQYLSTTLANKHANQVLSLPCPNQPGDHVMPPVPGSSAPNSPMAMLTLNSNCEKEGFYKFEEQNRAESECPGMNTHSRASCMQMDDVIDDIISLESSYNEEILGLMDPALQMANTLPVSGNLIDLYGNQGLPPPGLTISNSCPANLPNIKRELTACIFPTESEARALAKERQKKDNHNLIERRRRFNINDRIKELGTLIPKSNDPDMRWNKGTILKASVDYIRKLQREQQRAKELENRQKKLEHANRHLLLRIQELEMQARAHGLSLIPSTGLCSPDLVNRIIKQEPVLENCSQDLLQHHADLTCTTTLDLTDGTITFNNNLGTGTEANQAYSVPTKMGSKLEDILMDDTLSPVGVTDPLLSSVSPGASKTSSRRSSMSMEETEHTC

[3] = system: Vero; experiment: cells; assay type: functional; conditions: Chlorocebus sabaeus
[4] = target: T2, Short transient receptor potential channel 4 (Mus musculus, UniProt Q9QUQ5); experiment: TRPC4 positive allosteric modulators, dose response, cell-based, HEK293 TRPC4/mu-opioid, Fluo-4 calcium, EC20 DAMGO (AID 434941); assay type: functional
T2 sequence (Q9QUQ5 whole entry): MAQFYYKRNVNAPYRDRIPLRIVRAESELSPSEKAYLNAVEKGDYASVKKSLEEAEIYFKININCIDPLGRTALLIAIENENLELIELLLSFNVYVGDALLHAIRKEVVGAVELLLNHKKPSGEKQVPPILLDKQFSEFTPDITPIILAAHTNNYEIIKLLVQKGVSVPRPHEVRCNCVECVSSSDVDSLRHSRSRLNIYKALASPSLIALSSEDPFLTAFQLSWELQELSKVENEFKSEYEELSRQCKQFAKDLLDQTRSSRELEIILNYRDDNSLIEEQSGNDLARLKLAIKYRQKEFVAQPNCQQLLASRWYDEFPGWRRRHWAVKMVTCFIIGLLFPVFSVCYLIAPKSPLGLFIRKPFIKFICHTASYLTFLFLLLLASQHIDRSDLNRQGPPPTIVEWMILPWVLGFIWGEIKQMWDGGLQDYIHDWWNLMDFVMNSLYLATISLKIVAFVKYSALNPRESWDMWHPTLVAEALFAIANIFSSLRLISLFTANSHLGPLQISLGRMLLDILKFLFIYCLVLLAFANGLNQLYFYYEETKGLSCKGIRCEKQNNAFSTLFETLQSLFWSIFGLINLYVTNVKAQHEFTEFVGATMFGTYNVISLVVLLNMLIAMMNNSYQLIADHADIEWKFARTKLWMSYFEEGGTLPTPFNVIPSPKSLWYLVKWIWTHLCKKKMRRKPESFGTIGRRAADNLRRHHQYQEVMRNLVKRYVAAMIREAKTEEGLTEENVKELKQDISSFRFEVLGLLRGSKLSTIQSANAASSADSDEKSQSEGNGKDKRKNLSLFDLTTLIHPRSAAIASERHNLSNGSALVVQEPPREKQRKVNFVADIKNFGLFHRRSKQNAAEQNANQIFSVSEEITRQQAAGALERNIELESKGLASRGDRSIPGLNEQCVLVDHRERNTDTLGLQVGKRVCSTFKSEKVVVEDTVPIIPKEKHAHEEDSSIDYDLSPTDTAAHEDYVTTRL

[5] = inhibitors of firefly luciferase expression or activity, dose response, H4 neuroglioma cells, luminescence (AID 1990); assay type: functional, cell-based
[6] = Luminescence Cell-Based Dose Response HTS to Identify Inhibitors of 5'UTR Stem-Loop Driven Prion Protein mRNA Translation in H4 Neuroglioblastoma Cells. [Related pubchem assays: 1827 (Project Summary), 1813 (Primary HTS)]; assay type: functional
[7] = inhibitors of SNCA 5'UTR-driven reporter translation, confirmation, H4 neuroglioma cells, luminescence (AID 1988); assay type: functional, cell-based
[8] = target: Luciferin 4-monooxygenase (Photinus pyralis, UniProt P08659); experiment: firefly luciferase enzyme inhibitors, dose response, biochemical, luminescence (AID 1891)
[9] = Luminescence Cell-Based Dose Confirmation HTS to Identify Inhibitors of Platelet Dense Granule Release. [Related pubchem assays: 1663 (Primary HTS), 1678 (Summary of Project)]; assay type: functional
[10] = inhibition of ADP-Glo detection reagents, dose response, artefact control for CDK5 inhibitor project, biochemical, luminescence, cherry-picked samples, set 2 (AID 504546); assay type: functional
[11] = target: Cyclin-dependent kinase 5/CDK5 activator 1 (Homo sapiens, UniProt Q00535); experiment: CDK5/p35 kinase inhibitors, dose response, biochemical, cherry-picked samples, set 2 (AID 504545)
[12] = cells; assay type: functional
[13] = system: HEK293; experiment: inhibitors of LMP1-driven NF-kB reporter, dose response, cell-based, HEK293, luciferase, cherry-pick (AID 588343); assay type: functional; conditions: Homo sapiens
[14] = target: T3, Caspase-3 (Homo sapiens, UniProt P42574); experiment: procaspase-3 activators, dose response, biochemical, absorbance (AID 489014)
T3 sequence (P42574 whole entry): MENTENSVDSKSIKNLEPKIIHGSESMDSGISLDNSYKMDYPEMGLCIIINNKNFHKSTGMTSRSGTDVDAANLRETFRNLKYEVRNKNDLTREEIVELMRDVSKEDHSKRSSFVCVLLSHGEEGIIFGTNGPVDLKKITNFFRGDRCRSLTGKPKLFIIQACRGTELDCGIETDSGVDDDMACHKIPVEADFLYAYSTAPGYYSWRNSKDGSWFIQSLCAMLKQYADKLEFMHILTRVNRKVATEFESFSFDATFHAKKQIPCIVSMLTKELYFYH

[15] = target: Caspase-7 (Homo sapiens, UniProt P55210); experiment: procaspase-7 activators, dose response, counter-screen for procaspase-3 activator project, biochemical, absorbance (AID 489013)
[16] = target: T4, Corticotropin-releasing factor receptor 2/Corticotropin-releasing factor-binding protein (Homo sapiens, UniProt P24387+Q13324); experiment: Dose Response confirmation of uHTS hits for small molecule antagonists of the CRF-binding protein and CRF-R2 receptor complex.; assay type: functional; conditions: read-out: IC50_Mean
T4 sequence (Q13324 whole entry): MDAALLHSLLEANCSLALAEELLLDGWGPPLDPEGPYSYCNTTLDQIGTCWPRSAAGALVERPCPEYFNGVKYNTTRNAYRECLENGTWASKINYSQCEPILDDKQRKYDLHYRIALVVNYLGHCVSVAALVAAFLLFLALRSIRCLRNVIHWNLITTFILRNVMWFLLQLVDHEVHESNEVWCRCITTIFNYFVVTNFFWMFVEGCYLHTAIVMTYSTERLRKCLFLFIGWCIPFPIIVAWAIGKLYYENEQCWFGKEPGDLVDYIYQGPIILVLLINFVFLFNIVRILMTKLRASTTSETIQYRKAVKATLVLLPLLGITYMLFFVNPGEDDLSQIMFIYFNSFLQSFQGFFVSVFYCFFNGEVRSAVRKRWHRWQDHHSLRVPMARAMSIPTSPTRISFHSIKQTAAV
T4 sequence (P24387 whole entry): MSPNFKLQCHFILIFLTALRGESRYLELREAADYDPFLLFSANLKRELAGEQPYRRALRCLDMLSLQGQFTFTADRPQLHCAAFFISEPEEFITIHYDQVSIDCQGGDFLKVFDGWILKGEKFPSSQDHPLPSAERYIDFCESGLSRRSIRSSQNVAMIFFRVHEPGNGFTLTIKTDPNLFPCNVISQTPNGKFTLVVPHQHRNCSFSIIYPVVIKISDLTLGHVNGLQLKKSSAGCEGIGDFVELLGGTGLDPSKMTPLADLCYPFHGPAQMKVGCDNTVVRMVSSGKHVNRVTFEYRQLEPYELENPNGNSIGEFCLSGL

[17] = target: T4, Corticotropin-releasing factor receptor 2/Corticotropin-releasing factor-binding protein; experiment: activators of CRF receptor 2 with binding protein – uHTS hits, confirmation (AID 602473); assay type: functional; conditions: read-out: EC50_Mean
[18] = target: Cytochrome P450 3A4 (Homo sapiens, UniProt P08684);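 note: CYP3A4 tested as one member of a cytochrome P450 panel screen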
[19] = target: Protein Rev (Human immunodeficiency virus type 1 group M subtype B (isolate HXB2)(HIV-1), UniProt P04618); experiment: inhibitors of Rev binding to RRE RNA, dose response, biochemical, fluorescence polarization, HIV-1 (AID 434976); parameters: species or system Human immunodeficiency virus 1
[20] = target: Female germline-specific tumor suppressor gld-1 (Caenorhabditis elegans, UniProt Q17339); experiment: inhibitors of GLD-1 binding to TGE RNA, dose response, biochemical, fluorescence polarization, C. elegans (AID 2802);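 note: fluorescence polarization of labeled TGE RNA bound by purified gld-1 protein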
[21] = target: T5, Polyadenylate-binding protein 1 (Homo sapiens, UniProt P11940); experiment: PABP1 MLLE–PAM2 interaction inhibitors, dose response, miRNA deadenylation inhibitor project, biochemical, fluorescence polarization, Cy5-PAM2 peptide, secondary (AID 602260); assay type: functional; conditions: read-out: IC50_Mean
[22] = target: T5, Polyadenylate-binding protein 1; experiment: PABP1 MLLE–PAM2 binding inhibitor potency, dose response, biochemical, fluorescence polarization, FITC-PAM2 peptide (AID 602259); assay type: functional; conditions: read-out: IC50_Mean
[23] = target: Endoplasmic reticulum aminopeptidase 1 (Homo sapiens, UniProt Q9NZ08); experiment: ERAP1 aminopeptidase inhibitors, dose response, biochemical, cherry-pick, set 2, plate reader (AID 743314)
[24] = target: Eukaryotic translation initiation factor 4H (Homo sapiens, UniProt Q15056); experiment: eIF4H inhibition in translation initiation, SAR follow-up (AID 435011); assay type: functional
[25] = target: T5, Polyadenylate-binding protein 1; experiment: PABP inhibition in translation initiation, SAR follow-up (AID 435018); assay type: functional
[26] = target: T6, Delta-type opioid receptor (Homo sapiens, UniProt P41143); experiment: HTS Image-Based Screen for Antagonists of the DOR Receptor. [Related pubchem assays (depositor defined):AID1777, AID1785, AID1786, AID2133]; assay type: functional
[27] = target: Mu-type opioid receptor (Homo sapiens, UniProt P35372); experiment: HTS Image-Based Screen for Agonists of the MOR Receptor. [Related pubchem assays (depositor defined):AID1777, AID1785, AID1786, AID2133]; assay type: functional;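 note: imaging of beta-arrestin GFP recruitment into spots after receptor activation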
[28] = target: T6, Delta-type opioid receptor; experiment: HTS Image-Based Screen for Agonists of the DOR Receptor. [Related pubchem assays (depositor defined):AID1777, AID1786, AID2133]; assay type: functional
[29] = target: T7, Kappa-type opioid receptor (Homo sapiens, UniProt P41145); assay type: functional
[30] = target: T7, Kappa-type opioid receptor; assay type: functional; remark: listed apart in the source
[31] = target: Melanocortin receptor 4 (Homo sapiens, UniProt P32245); assay type: functional, cell-based;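 note: Cell-based assay with luminescence read-out, confirmatory dose-response testing for agonist activity of biased ligands at MC4R; human U2OS cells with tagged receptor and beta-arrestin; potency of agonists that increase receptor coupling to beta-arrestin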
[32] = target: Voltage-dependent T-type calcium channel subunit alpha-1H (Homo sapiens, UniProt O95180); experiment: Cav3.2 T-type channel inhibitors, cell-based, synthetic library set 1, calcium flux (AID 493022); assay type: functional
[33] = target: C-C chemokine receptor type 6 (Homo sapiens, UniProt P51684); experiment: CCR6 receptor antagonists, dose response, cell-based, luminescent beta-arrestin readout (AID 504728); assay type: functional
[34] = target: Beta-galactosidase (Escherichia coli, UniProt Q8VNN2); experiment: beta-galactosidase enzyme inhibitors and activators, dose response, artefact control for CCR6 antagonist project, biochemical, E. coli enzyme, set 3 (AID 504712); assay type: functional
Chain of Beta-galactosidase (Q8VNN2 whole entry): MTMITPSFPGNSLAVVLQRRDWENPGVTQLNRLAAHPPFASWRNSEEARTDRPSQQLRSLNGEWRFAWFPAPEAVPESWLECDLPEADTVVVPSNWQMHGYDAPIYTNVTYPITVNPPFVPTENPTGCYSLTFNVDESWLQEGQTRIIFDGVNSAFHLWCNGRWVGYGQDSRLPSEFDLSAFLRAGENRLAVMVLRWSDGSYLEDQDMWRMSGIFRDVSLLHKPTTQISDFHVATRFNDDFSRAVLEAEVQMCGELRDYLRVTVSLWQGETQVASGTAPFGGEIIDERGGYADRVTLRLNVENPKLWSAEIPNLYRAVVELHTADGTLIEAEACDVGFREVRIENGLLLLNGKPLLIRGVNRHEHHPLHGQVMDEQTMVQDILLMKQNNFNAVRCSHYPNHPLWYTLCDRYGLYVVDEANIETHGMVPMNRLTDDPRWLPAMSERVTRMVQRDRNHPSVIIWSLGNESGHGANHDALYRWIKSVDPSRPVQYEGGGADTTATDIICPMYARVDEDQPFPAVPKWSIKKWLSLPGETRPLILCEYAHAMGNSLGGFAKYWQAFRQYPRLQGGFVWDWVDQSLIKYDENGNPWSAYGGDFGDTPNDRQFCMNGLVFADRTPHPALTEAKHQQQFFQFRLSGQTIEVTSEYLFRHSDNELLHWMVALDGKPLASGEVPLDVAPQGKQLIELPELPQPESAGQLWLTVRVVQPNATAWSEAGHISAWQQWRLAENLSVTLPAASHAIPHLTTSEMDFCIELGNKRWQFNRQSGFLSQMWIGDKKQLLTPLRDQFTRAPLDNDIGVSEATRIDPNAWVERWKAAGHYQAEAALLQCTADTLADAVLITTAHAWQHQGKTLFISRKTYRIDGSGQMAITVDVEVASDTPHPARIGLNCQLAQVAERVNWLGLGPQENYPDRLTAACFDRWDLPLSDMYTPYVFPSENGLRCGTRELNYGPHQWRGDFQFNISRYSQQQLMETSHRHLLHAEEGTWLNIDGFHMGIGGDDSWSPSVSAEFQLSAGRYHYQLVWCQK

T5 sequence (P11940 whole entry): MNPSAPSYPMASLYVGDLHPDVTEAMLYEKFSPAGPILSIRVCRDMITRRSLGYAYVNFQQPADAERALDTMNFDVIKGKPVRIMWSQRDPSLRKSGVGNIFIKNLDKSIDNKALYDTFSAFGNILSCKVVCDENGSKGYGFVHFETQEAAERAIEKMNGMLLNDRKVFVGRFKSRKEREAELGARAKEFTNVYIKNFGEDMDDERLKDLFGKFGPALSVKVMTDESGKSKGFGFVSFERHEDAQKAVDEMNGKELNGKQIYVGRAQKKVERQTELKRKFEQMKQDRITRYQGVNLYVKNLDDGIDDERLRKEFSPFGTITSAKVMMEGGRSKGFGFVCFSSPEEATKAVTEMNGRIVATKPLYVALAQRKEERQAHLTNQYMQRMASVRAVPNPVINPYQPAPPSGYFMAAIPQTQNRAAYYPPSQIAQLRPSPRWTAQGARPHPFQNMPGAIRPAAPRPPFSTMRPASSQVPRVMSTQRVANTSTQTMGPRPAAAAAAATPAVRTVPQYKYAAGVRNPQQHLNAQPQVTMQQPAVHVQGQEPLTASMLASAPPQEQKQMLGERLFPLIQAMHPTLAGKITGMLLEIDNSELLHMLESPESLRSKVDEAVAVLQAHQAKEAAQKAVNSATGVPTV
T6 sequence (P41143 whole entry): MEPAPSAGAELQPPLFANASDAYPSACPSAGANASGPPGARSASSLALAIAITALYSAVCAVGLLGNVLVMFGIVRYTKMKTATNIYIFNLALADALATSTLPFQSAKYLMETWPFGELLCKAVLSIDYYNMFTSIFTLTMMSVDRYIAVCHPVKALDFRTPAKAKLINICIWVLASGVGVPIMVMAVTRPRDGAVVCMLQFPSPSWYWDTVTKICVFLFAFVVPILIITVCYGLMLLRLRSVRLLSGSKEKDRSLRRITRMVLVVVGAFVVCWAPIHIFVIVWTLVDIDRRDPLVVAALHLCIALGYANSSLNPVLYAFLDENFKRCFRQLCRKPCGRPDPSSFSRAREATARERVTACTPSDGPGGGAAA
T7 sequence (P41145 whole entry): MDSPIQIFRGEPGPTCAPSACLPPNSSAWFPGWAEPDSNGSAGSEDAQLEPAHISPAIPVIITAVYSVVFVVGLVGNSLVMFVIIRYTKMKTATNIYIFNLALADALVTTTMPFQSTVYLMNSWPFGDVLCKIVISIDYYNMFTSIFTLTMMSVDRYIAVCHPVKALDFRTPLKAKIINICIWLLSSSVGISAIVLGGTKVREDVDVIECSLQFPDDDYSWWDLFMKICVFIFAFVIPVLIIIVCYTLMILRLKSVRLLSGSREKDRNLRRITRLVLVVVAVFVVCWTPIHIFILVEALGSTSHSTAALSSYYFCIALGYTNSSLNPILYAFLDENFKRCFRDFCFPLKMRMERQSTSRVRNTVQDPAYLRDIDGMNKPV
Chain of Neurotensin receptor type 1 (P30989 whole entry): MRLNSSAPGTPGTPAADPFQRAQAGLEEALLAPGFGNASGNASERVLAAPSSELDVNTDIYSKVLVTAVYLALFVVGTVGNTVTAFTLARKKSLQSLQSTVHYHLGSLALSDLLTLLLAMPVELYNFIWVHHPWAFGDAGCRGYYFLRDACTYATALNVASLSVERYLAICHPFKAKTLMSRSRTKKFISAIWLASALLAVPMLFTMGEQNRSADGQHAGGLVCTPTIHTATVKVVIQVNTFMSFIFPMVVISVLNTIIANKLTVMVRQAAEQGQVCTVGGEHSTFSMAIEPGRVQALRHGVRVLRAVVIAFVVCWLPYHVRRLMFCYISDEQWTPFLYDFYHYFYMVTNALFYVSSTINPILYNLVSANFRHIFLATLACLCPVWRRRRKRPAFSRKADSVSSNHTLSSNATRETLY
Chain of Cyclin-dependent kinase 5/CDK5 activator 1 (Q00535 whole entry): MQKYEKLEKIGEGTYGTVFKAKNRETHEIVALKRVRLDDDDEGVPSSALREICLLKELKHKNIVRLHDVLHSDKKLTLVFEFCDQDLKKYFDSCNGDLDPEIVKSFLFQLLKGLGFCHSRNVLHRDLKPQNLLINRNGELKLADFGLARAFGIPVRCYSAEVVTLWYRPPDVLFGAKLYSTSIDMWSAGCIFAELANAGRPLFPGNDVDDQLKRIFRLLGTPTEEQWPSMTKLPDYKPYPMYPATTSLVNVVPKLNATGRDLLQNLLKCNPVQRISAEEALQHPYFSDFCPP
Chain of Cyclin-dependent kinase 5/CDK5 activator 1 (Q15078 whole entry, further chain): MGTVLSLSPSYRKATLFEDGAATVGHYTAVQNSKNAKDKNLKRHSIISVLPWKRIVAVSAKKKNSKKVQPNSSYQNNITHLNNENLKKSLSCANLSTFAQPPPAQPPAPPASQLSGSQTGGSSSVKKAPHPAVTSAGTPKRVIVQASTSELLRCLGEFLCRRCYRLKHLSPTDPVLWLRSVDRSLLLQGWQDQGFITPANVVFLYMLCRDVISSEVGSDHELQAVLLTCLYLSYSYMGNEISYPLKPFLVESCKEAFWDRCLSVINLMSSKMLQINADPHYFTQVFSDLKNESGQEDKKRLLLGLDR
Chain of Caspase-7 (P55210 24-198 limits assumed): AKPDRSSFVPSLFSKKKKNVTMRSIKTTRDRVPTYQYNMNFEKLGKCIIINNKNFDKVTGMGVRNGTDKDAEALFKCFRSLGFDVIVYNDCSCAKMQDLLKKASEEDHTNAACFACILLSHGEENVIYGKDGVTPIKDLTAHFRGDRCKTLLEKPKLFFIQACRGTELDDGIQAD
Chain of Caspase-7 (P55210 207-303 limits assumed): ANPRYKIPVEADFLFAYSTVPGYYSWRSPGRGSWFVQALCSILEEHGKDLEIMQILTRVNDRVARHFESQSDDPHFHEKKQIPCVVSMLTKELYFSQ
Chain of Luciferin 4-monooxygenase (P08659 whole entry): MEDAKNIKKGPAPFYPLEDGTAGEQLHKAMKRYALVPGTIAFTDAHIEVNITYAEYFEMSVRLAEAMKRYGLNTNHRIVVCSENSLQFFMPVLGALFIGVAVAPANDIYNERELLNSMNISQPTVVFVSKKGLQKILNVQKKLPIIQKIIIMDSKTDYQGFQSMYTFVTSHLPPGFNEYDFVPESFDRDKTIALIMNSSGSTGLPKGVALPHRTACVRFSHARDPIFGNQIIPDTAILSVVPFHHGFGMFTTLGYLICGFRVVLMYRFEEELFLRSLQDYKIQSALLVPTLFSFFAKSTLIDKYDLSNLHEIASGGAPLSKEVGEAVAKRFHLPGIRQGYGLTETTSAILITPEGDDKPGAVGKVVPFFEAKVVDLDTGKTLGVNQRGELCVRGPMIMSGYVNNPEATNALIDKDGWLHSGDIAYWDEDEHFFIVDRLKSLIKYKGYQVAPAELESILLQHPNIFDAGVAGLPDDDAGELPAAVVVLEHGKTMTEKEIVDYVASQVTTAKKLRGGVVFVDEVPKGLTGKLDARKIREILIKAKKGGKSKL
Chain of C-C chemokine receptor type 6 (P51684 whole entry): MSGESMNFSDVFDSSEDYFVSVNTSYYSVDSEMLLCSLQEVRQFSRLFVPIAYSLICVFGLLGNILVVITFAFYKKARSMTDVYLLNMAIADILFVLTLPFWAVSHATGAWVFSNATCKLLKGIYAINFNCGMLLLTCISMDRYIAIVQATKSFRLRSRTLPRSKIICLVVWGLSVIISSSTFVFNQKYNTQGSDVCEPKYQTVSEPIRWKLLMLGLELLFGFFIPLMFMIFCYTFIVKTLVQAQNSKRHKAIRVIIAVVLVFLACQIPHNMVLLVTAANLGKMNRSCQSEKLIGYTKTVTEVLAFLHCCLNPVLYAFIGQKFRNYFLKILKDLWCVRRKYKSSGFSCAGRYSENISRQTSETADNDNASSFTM

In the case of `Cc1cccc(N2C(=O)NC(=O)/C(=C\c3cccn3-c3ccc(Cl)cc3)C2=O)c1`, the EC50 [1] is reported as 9.06 µM (active), the AC50 [2] is reported as 8.91 µM (active) and the CC50 [3] is reported as 23.4 µM (active).

With `Cc1cccc(Cc2c(C)nc3c(C(=O)NCc4ccco4)cnn3c2C)c1` the EC50 [4] was 3.76 µM (active).

With `CCOc1ccc(OCC(=O)Nc2nccs2)cc1` the EC50 [5] was 8.12 µM (active), the EC50 [6] was 9.78 µM (active) and the EC50 [7] was 6.85 µM (active). The EC50 [8] was 5.61 µM (active), the EC50 [9] was 2.37 µM (active) and the AC50 [10] was 31.3 µM (active). The AC50 [11] was 21.2 µM (active), the IC50 [12] was 20.2 µM (active) and the AC50 [13] was 2.74 µM (active).

In the case of `COC(=O)C1=C(NC(=O)c2cccc(OC)c2)CCS1`, the EC50 [14] is reported as > 85.3 µM (inactive), the EC50 [15] is reported as > 85.3 µM (inactive) and the IC50 [16] is reported as > 47.1 µM (inactive). The EC50 [17] was > 53 µM (inactive) and the AC50 [18] was 25.1 µM (inconclusive).

With `Cc1c(O)ccc2cc(S(=O)(=O)c3ccccc3)c(=O)oc12` the IC50 [19] was 14.2 µM (not active), the IC50 [20] was 4.72 µM (active) and the IC50 [21] was > 66 µM (inactive). The IC50 [22] was 46.7 µM (inactive) and the AC50 [23] was 3.32 µM (active).

With `COc1ccc(OC)c([N+]2=C3SCCCN3C(O)(c3cccs3)C2)c1` (centres undefined) the IC50 [24] was > 100 µM (inactive) and the IC50 [25] was > 100 µM (inactive).

In the case of `Cc1ccccc1NC(=O)c1ccc(COc2ccc3c(C)cc(=O)oc3c2)cc1`, the IC50 [26] is reported as > 32 µM (inactive), the EC50 [27] is reported as > 32 µM (inactive) and the EC50 [28] is reported as > 32 µM (inactive). For the same compound, the EC50 [29] was > 35 µM, the EC50 [30] was 18.1 µM and the EC50 [31] was > 89.3 µM (inactive).

In the case of `O=C(COc1ccc(F)cc1)Nc1nnc(-c2ccc(F)c(F)c2)o1`, the EC50 [32] is reported as 3.7 µM (active).

For `CN(C)CC1CCC/C(=C\c2ccc(OC(=O)c3ccc(Cl)cc3)cc2)C1=O` (centres undefined), the IC50 [33] was 47.6 µM (inactive) and the IC50 [34] was > 66.6 µM (inactive).
